Measured values: ChEMBL document CHEMBL3046133, “Susceptibility of field populations of Spodoptera litura (Fabricius) (Lepidoptera: Noctuidae) in China to chlorantraniliprole and the activities of detoxification enzymes” (2012)

Key:
Format in all cases: functional
[1] = system: Spodoptera litura; assay: Resistance factor, ratio of LC50 for second to fifth-instar larval stage of Spodoptera litura field strain DG10 to LC50 for larval stage of Spodoptera litura laboratory strain XW-Sus
[2] = system: Spodoptera litura; assay: Resistance factor, ratio of LC50 for second to fifth-instar larval stage of Spodoptera litura field strain HZ10 to LC50 for larval stage of Spodoptera litura laboratory strain XW-Sus
[3] = system: Spodoptera litura; assay: Resistance factor, ratio of LC50 for second to fifth-instar larval stage of Spodoptera litura field strain SZ10 to LC50 for larval stage of Spodoptera litura laboratory strain XW-Sus
[4] = system: Spodoptera litura; assay: Resistance factor, ratio of LC50 for second to fifth-instar larval stage of Spodoptera litura field strain ZZ10 to LC50 for larval stage of Spodoptera litura laboratory strain XW-Sus
[5] = system: Spodoptera litura; assay: Resistance factor, ratio of LC50 for third to fifth-instar larval stage of Spodoptera litura field strain HX09 to LC50 for larval stage of Spodoptera litura laboratory strain XW-Sus
[6] = system: Spodoptera litura; assay: Resistance factor, ratio of LC50 for third to fifth-instar larval stage of Spodoptera litura field strain HF10 to LC50 for larval stage of Spodoptera litura laboratory strain XW-Sus
[7] = system: Spodoptera litura; assay: Resistance factor, ratio of LC50 for third to fifth-instar larval stage of Spodoptera litura field strain HF08 to LC50 for larval stage of Spodoptera litura laboratory strain XW-Sus
[8] = system: Spodoptera litura; assay: Resistance factor, ratio of LC50 for third to fifth-instar larval stage of Spodoptera litura field strain SH10 to LC50 for larval stage of Spodoptera litura laboratory strain XW-Sus
[9] = system: Spodoptera litura; assay: Resistance factor, ratio of LC50 for third to fifth-instar larval stage of Spodoptera litura field strain NJ10 to LC50 for larval stage of Spodoptera litura laboratory strain XW-Sus
[10] = system: Spodoptera litura; assay: Resistance factor, ratio of LC50 for third to fifth-instar larval stage of Spodoptera litura field strain NJ09 to LC50 for larval stage of Spodoptera litura laboratory strain XW-Sus
[11] = system: Spodoptera litura; assay: Resistance factor, ratio of LC50 for third to fifth-instar larval stage of Spodoptera litura field strain NN10 to LC50 for larval stage of Spodoptera litura laboratory strain XW-Sus
[12] = system: Spodoptera litura; assay: Resistance factor, ratio of LC50 for third to fifth-instar larval stage of Spodoptera litura field strain HH09 to LC50 for larval stage of Spodoptera litura laboratory strain XW-Sus
[13] = system: Spodoptera litura; assay: Insecticidal activity against second to fifth-instar larval stage of Spodoptera litura field strain DG10 assessed as mortality after 72 hr by diet incorporation bioassay
[14] = system: Spodoptera litura; assay: Insecticidal activity against second to fifth-instar larval stage of Spodoptera litura field strain HZ10 assessed as mortality after 72 hr by diet incorporation bioassay
[15] = system: Spodoptera litura; assay: Insecticidal activity against second to fifth-instar larval stage of Spodoptera litura field strain SZ10 assessed as mortality after 72 hr by diet incorporation bioassay
[16] = system: Spodoptera litura; assay: Insecticidal activity against second to fifth-instar larval stage of Spodoptera litura field strain ZZ10 assessed as mortality after 72 hr by diet incorporation bioassay
[17] = system: Spodoptera litura; assay: Insecticidal activity against third to fifth-instar larval stage of Spodoptera litura field strain HX09 assessed as mortality after 72 hr by diet incorporation bioassay
[18] = system: Spodoptera litura; assay: Insecticidal activity against third to fifth-instar larval stage of Spodoptera litura field strain HF10 assessed as mortality after 72 hr by diet incorporation bioassay
[19] = system: Spodoptera litura; assay: Insecticidal activity against third to fifth-instar larval stage of Spodoptera litura field strain HF08 assessed as mortality after 72 hr by diet incorporation bioassay
[20] = system: Spodoptera litura; assay: Insecticidal activity against third to fifth-instar larval stage of Spodoptera litura field strain SH10 assessed as mortality after 72 hr by diet incorporation bioassay
[21] = system: Spodoptera litura; assay: Insecticidal activity against third to fifth-instar larval stage of Spodoptera litura field strain NJ10 assessed as mortality after 72 hr by diet incorporation bioassay
[22] = system: Spodoptera litura; assay: Insecticidal activity against third to fifth-instar larval stage of Spodoptera litura field strain NJ09 assessed as mortality after 72 hr by diet incorporation bioassay
[23] = system: Spodoptera litura; assay: Insecticidal activity against third to fifth-instar larval stage of Spodoptera litura field strain NN10 assessed as mortality after 72 hr by diet incorporation bioassay
[24] = system: Spodoptera litura; assay: Insecticidal activity against third to fifth-instar larval stage of Spodoptera litura field strain HH09 assessed as mortality after 72 hr by diet incorporation bioassay
[25] = system: Spodoptera litura; assay: Insecticidal activity against larval stage of Spodoptera litura laboratory strain XW-Sus assessed as mortality after 72 hr by diet incorporation bioassay

## CNC(=O)c1cc(Cl)cc(C)c1NC(=O)c1cc(Br)nn1-c1ncccc1Cl [CHLORANTRANILIPROLE]
[1]
  RatioLC50: 23.3
[2]
  RatioLC50: 19.2
[3]
  RatioLC50: 24.4
[4]
  RatioLC50: 18.9
[5]
  RatioLC50: 23.8
[6]
  RatioLC50: 17.9
[7]
  RatioLC50: 16.9
[8]
  RatioLC50: 11.2
[9]
  RatioLC50: 9
[10]
  RatioLC50: 6.8
[11]
  RatioLC50: 7.8
[12]
  RatioLC50: 9.4
[13]
  LC50: 98.81 ugAi/L
  LC90: 358.16 ugAi/L
[14]
  LC50: 80.41 ugAi/L
  LC90: 296.76 ugAi/L
[15]
  LC50: 102.48 ugAi/L
  LC90: 354.52 ugAi/L
[16]
  LC50: 78.89 ugAi/L
  LC90: 269.74 ugAi/L
[17]
  LC50: 100.3 ugAi/L
  LC90: 431.76 ugAi/L
[18]
  LC50: 75.51 ugAi/L
  LC90: 262.61 ugAi/L
[19]
  LC50: 71.58 ugAi/L
  LC90: 386.57 ugAi/L
[20]
  LC50: 47.17 ugAi/L
  LC90: 133.09 ugAi/L
[21]
  LC50: 37.78 ugAi/L
  LC90: 156.29 ugAi/L
[22]
  LC50: 28.41 ugAi/L
  LC90: 108.24 ugAi/L
[23]
  LC50: 32.85 ugAi/L
  LC90: 81.75 ugAi/L
[24]
  LC50: 39.54 ugAi/L
  LC90: 132.55 ugAi/L
[25]
  LC50: 4.2 ugAi/L
  LC90: 17.82 ugAi/L
